Assay results taken from BindingDB's records for doi:10.1021/jm0701019 (Abbott Laboratories, 2007).

biological target: T1, RAC-alpha serine/threonine-protein kinase [139-480,S378A,S381A,T450D,S473D] (Homo sapiens, UniProt P31749, S378A/S381A/S473D/T450D); assay: Akt Kinase Assay; settings: not given
T1 construct: 139-480
Procedure: The kinase assay uses His-Akt1 and a biotinylated peptide as substrate. The biotinylated peptides were immobilized on streptavidin-coated FLASH plates. After reaction, the 33P-phosphopeptide captured on the FLASH plates was measured with a TopCount Packard Instruments […] (Packard Instruments, Boston, MA).

T1 sequence (P31749 139-480 S378A/S381A/T450D/S473D): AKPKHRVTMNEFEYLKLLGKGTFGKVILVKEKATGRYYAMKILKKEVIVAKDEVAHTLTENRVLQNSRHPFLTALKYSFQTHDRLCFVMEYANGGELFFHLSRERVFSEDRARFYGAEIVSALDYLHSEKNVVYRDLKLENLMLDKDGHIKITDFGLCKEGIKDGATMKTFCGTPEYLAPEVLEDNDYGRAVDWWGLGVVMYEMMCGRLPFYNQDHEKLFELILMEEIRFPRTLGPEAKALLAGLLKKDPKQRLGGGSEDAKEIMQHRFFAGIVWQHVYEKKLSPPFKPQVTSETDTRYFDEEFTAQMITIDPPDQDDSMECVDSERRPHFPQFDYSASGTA

Row | SMILES | IC50
1 | Cc1cc(C[C@H](N)COc2cncc(-c3ccc4[nH]nc(C)c4c3)c2)ccc1F [(2S)-1-(3-methyl-4-fluorophenyl)-3-{[5-(3-methyl-1H-indazol-5-yl)pyridin-3-yl]oxy}propan-2-amine] | 11 nM
2 | Cc1n[nH]c2ccc(-c3cncc(OC[C@@H](N)Cc4ccc(Cl)cc4)c3)cc12 [(2S)-1-(4-chlorophenyl)-3-{[5-(3-methyl-1H-indazol-5-yl)pyridin-3-yl]oxy}propan-2-amine] | 11 nM
3 | Cc1n[nH]c2ccc(-c3cncc(OC[C@@H](N)Cc4cc(F)cc(C(F)(F)F)c4)c3)cc12 [(2S)-1-[5-fluoro-3-(trifluoromethyl)phenyl]-3-{[5-(3-methyl-1H-indazol-5-yl)pyridin-3-yl]oxy}propan-2-amine] | 13.3 nM
4 | Cc1n[nH]c2ccc(-c3cncc(OC[C@@H](N)Cc4ccc(OC(F)(F)F)cc4)c3)cc12 [(2S)-1-{[5-(3-methyl-1H-indazol-5-yl)pyridin-3-yl]oxy}-3-[4-(trifluoromethoxy)phenyl]propan-2-amine] | 20.3 nM
5 | Cc1n[nH]c2ccc(-c3cncc(OC[C@@H](N)Cc4ccc(C(F)(F)F)cc4)c3)cc12 [(2S)-1-{[5-(3-methyl-1H-indazol-5-yl)pyridin-3-yl]oxy}-3-[4-(trifluoromethyl)phenyl]propan-2-amine] | 18 nM

Continued, values first:

Row | IC50 | SMILES
6 | 7.7 nM | COc1ccc(F)cc1C[C@H](N)COc1cncc(-c2ccc3[nH]nc(C)c3c2)c1 [(2S)-1-(5-fluoro-2-methoxyphenyl)-3-{[5-(3-methyl-1H-indazol-5-yl)pyridin-3-yl]oxy}propan-2-amine]
7 | 7.2 nM | N[C@H](COc1cncc(-c2cc3cn[nH]c3cn2)c1)Cc1cccc(C(F)(F)F)c1 [(2S)-1-{[5-(1H-pyrazolo[3,4-c]pyridin-5-yl)pyridin-3-yl]oxy}-3-[3-(trifluoromethyl)phenyl]propan-2-amine]
8 | 5.9 nM | Cc1n[nH]c2ccc(-c3cncc(OC[C@@H](N)Cc4cccc(Cl)c4)c3)cc12 [(2S)-1-(3-chlorophenyl)-3-{[5-(3-methyl-1H-indazol-5-yl)pyridin-3-yl]oxy}propan-2-amine]
9 | 3.1 nM | Cc1n[nH]c2ccc(-c3cncc(OC[C@@H](N)Cc4ccc(F)c(Cl)c4)c3)cc12 [(2S)-1-(3-chloro-4-fluorophenyl)-3-{[5-(3-methyl-1H-indazol-5-yl)pyridin-3-yl]oxy}propan-2-amine]
10 | 2.9 nM | N[C@H](COc1cncc(-c2cc3c(Cl)n[nH]c3cn2)c1)Cc1cccc(C(F)(F)F)c1 [(2S)-1-{[5-(3-chloro-1H-pyrazolo[3,4-c]pyridin-5-yl)pyridin-3-yl]oxy}-3-[3-(trifluoromethyl)phenyl]propan-2-amine]
11 | 2.1 nM | Cc1n[nH]c2ccc(-c3cncc(OC[C@@H](N)Cc4cccc(Br)c4)c3)cc12 [(2S)-1-(3-bromophenyl)-3-{[5-(3-methyl-1H-indazol-5-yl)pyridin-3-yl]oxy}propan-2-amine]
12 | 1.2 nM | Cc1n[nH]c2ccc(-c3cncc(OC[C@@H](N)Cc4cccc(C(F)(F)F)c4)c3)cc12 [(2S)-1-{[5-(3-methyl-1H-indazol-5-yl)pyridin-3-yl]oxy}-3-[3-(trifluoromethyl)phenyl]propan-2-amine]

same assay, conditions: pH 7.5; 22 °C

Row | IC50 | SMILES
13 | 1.4 nM | N[C@H](COc1cncc(-c2ccc3c(c2)/C(=C\c2ccco2)C(=O)N3)c1)Cc1ccccc1 [(3E)-5-{5-[(2S)-2-amino-3-phenylpropoxy]pyridin-3-yl}-3-(furan-2-ylmethylidene)-2,3-dihydro-1H-indol-2-one]
14 | 16 nM | N[C@H](COc1cncc(-c2ccc3c(c2)/C(=C/c2ccc[nH]2)C(=O)N3)c1)Cc1ccccc1 [(3Z)-5-{5-[(2S)-2-amino-3-phenylpropoxy]pyridin-3-yl}-3-(1H-pyrrol-2-ylmethylidene)-2,3-dihydro-1H-indol-2-one]
